Our source for the IC50 values is US9988420B2, “Cytotoxic peptides and conjugates thereof” (priority 2013, dated 2018).

Starred links: 1 amine or outer side, 2 acyl side, 3 side chain; linkers in the order of their positions; H or OH if unused. Non-standard residues stand in square brackets, D forms with d. Residues, ends and D or L forms follow the SMILES beside them. *: point of attachment. Dolaproine = CO[C@@H]([C@@H]1CCCN1)[C@@H](C)C(=O)O; X1 = O=C([C@@H]1[C@H]2CC[C@H](C2)N1[*:1])[*:2]; Dil = CC[C@H](C)[C@H](NC)[C@@H](CC(=O)O)OC; X2 = CN1[C@@H]2CC[C@@H](C2)[C@H]1C(=O)*; Phe(ol) = N[C@H](CO)Cc1ccccc1

Common to all, as to test: In vitro cell killing assay of payloads (cell proliferation, Cell-Titer-Glo)
Holding throughout (type): cell-based

Test [1] concerns JimT1 cells. To be noted: Homo sapiens, JIMT-1, 120 h; JimT1 cells; Cell-Titer-Glo after five days; Table 2b; read-out: In vitro cell killing (IC50 (nM)) JimT1.
For test [2], the system named is H526 cells. Particulars: Homo sapiens, 120 h; NCI-H526 cells; Cell-Titer-Glo after five days; Table 2b; read-out: In vitro cell killing (IC50 (nM)) NCI-H526.
Test [3] relates to A375 cells. Particulars: Homo sapiens, A-375, 120 h, Cell-Titer-Glo after five days. The procedure: (§1) For evaluation of the cell killing potency of the cytotoxic peptides of Formula (I) in vitro, cell proliferation assays were performed in parallel with 8 cell lines: MDA-MB231 clone 16, clone 40, JimT1, HCC1954, H526, KU812, CMK11-5 cells and Jurkat cells. In addition, in vitro, cell proliferation assays were performed using 3 other cell lines: A375, SKBR3 and NCI-N87. All the cell lines are described in more detail in Example 106 and were also used to assess the in vitro potency of immunoconjugates of the invention. The cell proliferation assays were conducted with Cell-Titer-Glo™ (Promega) five days after cells were incubated with various concentrations of ADCs (Riss et al., (2004) Assay Drug Dev Technol. 2:51-62).

For test [4], the system named is NCI-N87 cells. To be noted: Homo sapiens, 120 h, Cell-Titer-Glo after five days. The procedure: as §1
The subject of test [5] is SKBR3 cells. Particulars: Homo sapiens, SK-BR-3, 120 h, Cell-Titer-Glo after five days. The procedure: as §1
Test [6] deals with HCC1954 cells. Particulars: Homo sapiens, 120 h; HCC1954 cells; Cell-Titer-Glo after five days; Table 2b; read-out: In vitro cell killing (IC50 (nM)) HCC1954.

For the molecule `CC[C@H](C)[C@@H]([C@@H](CC(=O)N1CCC[C@H]1[C@H](OC)[C@@H](C)C(=O)N[C@H](COC)Cc1ccccc1)OC)N(C)C(=O)[C@@H](NC(=O)[C@H]1N[C@@H]2CC[C@H]1C2)C(C)C` [Compound 58, (1R,3S,4S)-N-((S)-1-(((3R,4S,5S)-3-Methoxy-1-((S)-2-((1R,2R)-1-methoxy-3-(((S)-1-methoxy-3-phenylpropan-2-yl)amino)-2-methyl-3-oxopropyl)pyrrolidin-1-yl)-5-methyl-1-oxoheptan-4-yl)(methyl)amino)-3-methyl-1-oxobutan-2-yl)-2-azabicyclo[2.2.1]heptane-3-carboxamide], the half-inhibitory concentration (IC50) (as a rule, the concentration needed to halve the response being measured) was determined as 2.15 nM in test [1]; 4.08 nM in test [2]; 0.304 nM in test [3]; 0.31 nM in test [4]; 0.307 nM in test [5].
Regarding `CC[C@H](C)[C@@H]([C@@H](CC(=O)N1CCC[C@H]1[C@H](OC)[C@@H](C)C(=O)N[C@@H](Cc1ccccc1)C(=O)OC)OC)N(C)C(=O)[C@@H](NC(=O)[C@@H]1[C@H]2CC[C@H](C2)N1C)C(C)C` [Compound 53, (S)-Methyl 2-((2R,3R)-3-((S)-1-((3R,4S,5S)-4-((S)-N,3-dimethyl-2-((1R,3S,4S)-2-methyl-2-azabicyclo[2.2.1]heptane-3-carboxamido)butanamido)-3-methoxy-5-methylheptanoyl)pyrrolidin-2-yl)-3-methoxy-2-methylpropanamido)-3-phenylpropanoate] (X2-V[Dil][Dolaproine]F-OMe), the 50% inhibitory concentration (IC50) in test [6] stood at 0.009 nM; in test [1] it was 0.011 nM; in test [2], 0.121 nM; in test [3], 0.0121 nM; in test [5], 0.008 nM.
For the molecule `CC[C@H](C)[C@@H]([C@@H](CC(=O)N1CCC[C@H]1[C@H](OC)[C@@H](C)C(=O)N[C@@H](Cc1ccccc1)c1nc(-c2ccccc2)c[nH]1)OC)N(C)C(=O)[C@@H](NC(=O)[C@H]1N[C@@H]2CC[C@H]1C2)C(C)C` [Compound 57, (1R,3S,4S)-N-((S)-1-(((3R,4S,5S)-3-Methoxy-1-((S)-2-((1R,2R)-1-methoxy-2-methyl-3-oxo-3-(((S)-2-phenyl-1-(5-phenyl-1H-imidazol-2-yl)ethyl)amino)propyl)pyrrolidin-1-yl)-5-methyl-1-oxoheptan-4-yl)(methyl)amino)-3-methyl-1-oxobutan-2-yl)-2-azabicyclo[2.2.1]heptane-3-carboxamide], the 50% inhibitory concentration (IC50) in test [1] was 0.307 nM; in test [2], 1.11 nM; in test [3], 0.049 nM; in test [4], 0.019 nM; in test [5], 0.034 nM.
Take `CC[C@H](C)[C@@H]([C@@H](CC(=O)N1CCC[C@H]1[C@H](OC)[C@@H](C)C(=O)N[C@@H](Cc1ccccc1)c1nc(-c2ccccc2)c[nH]1)OC)N(C)C(=O)[C@@H](NC(=O)[C@@H]1[C@H]2CC[C@H](C2)N1C)C(C)C` [Compound 66, (1R,3S,4S)-N-((S)-1-(((3R,4S,5S)-3-Methoxy-1-((S)-2-((1R,2R)-1-methoxy-2-methyl-3-oxo-3-(((S)-2-phenyl-1-(4-phenyl-1H-imidazol-2-yl)ethyl)amino)propyl)pyrrolidin-1-yl)-5-methyl-1-oxoheptan-4-yl)(methyl)amino)-3-methyl-1-oxobutan-2-yl)-2-methyl-2-azabicyclo[2.2.1]heptane-3-carboxamide]: the concentration for half-maximal inhibition (IC50) in test [6] stood at 0.023 nM; in test [1], 0.052 nM; in test [2] it was 0.126 nM; in test [3], 0.05 nM; in test [5], 0.031 nM.
With `CC[C@H](C)[C@@H]([C@@H](CC(=O)N1CCC[C@H]1[C@H](OC)[C@@H](C)C(=O)N[C@@H](Cc1ccccc1)c1cc[nH]n1)OC)N(C)C(=O)[C@@H](NC(=O)[C@H]1N[C@@H]2CC[C@H]1C2)C(C)C` [Compound 59, (1R,3S,4S)-N-((S)-1-(((3R,4S,5S)-3-Methoxy-1-((S)-2-((1R,2R)-1-methoxy-2-methyl-3-oxo-3-(((S)-2-phenyl-1-(1H-pyrazol-3-yl)ethyl)amino)propyl)pyrrolidin-1-yl)-5-methyl-1-oxoheptan-4-yl)(methyl)amino)-3-methyl-1-oxobutan-2-yl)-2-azabicyclo[2.2.1]heptane-3-carboxamide], the concentration for half-maximal inhibition (IC50) in test [1] turned out to be 37.5 nM; in test [2], 19.5 nM; in test [3] it was 3.55 nM; in test [4], 4.78 nM; in test [5], 3.12 nM.
Turning to `CC[C@H](C)[C@@H]([C@@H](CC(=O)N1CCC[C@H]1[C@H](OC)[C@@H](C)C(=O)N[C@H](CO)Cc1ccccc1)OC)N(C)C(=O)[C@@H](NC(=O)[C@H]1N[C@@H]2CC[C@H]1C2)C(C)C` [Compound 50, (1R,3S,4S)-N-((S)-1-(((3R,4S,5S)-1-((S)-2-((1R,2R)-3-(((S)-1-Hydroxy-3-phenylpropan-2-yl)amino)-1-methoxy-2-methyl-3-oxopropyl)pyrrolidin-1-yl)-3-methoxy-5-methyl-1-oxoheptan-4-yl)(methyl)amino)-3-methyl-1-oxobutan-2-yl)-2-azabicyclo[2.2.1]heptane-3-carboxamide] (H-[X1]V[Dil][Dolaproine][Phe(ol)]), the IC50 in test [1] was determined as 57.6 nM; in test [2] it was 52.4 nM; in test [3], 5.16 nM; in test [4], 10.2 nM; in test [5], 5.66 nM.
With `CC[C@H](C)[C@@H]([C@@H](CC(=O)N1CCC[C@H]1[C@H](OC)[C@@H](C)C(=O)N[C@@H](Cc1ccccc1)c1ncccn1)OC)N(C)C(=O)[C@@H](NC(=O)[C@H]1N[C@@H]2CC[C@H]1C2)C(C)C` [Compound 60, (1R,3S,4S)-N-((S)-1-(((3R,4S,5S)-3-Methoxy-1-((S)-2-((1R,2R)-1-methoxy-2-methyl-3-oxo-3-(((S)-2-phenyl-1-(pyrimidin-2-yl)ethyl)amino)propyl)pyrrolidin-1-yl)-5-methyl-1-oxoheptan-4-yl)(methyl)amino)-3-methyl-1-oxobutan-2-yl)-2-azabicyclo[2.2.1]heptane-3-carboxamide], the IC50 in test [1] came to 4.82 nM; in test [2], 8.35 nM; in test [3], 0.45 nM; in test [4], 0.801 nM; in test [5] it was 0.591 nM.
On to `CC[C@H](C)[C@@H]([C@@H](CC(=O)N1CCC[C@H]1[C@H](OC)[C@@H](C)C(=O)N[C@H](CO)Cc1cccc(N)c1)OC)N(C)C(=O)[C@@H](NC(=O)[C@@H]1[C@H]2CC[C@H](C2)N1C)C(C)C` [Compound 52, (1R,3S,4S)-N-((S)-1-(((3R,4S,5S)-1-((S)-2-((1R,2R)-3-(((S)-1-(3-Aminophenyl)-3-hydroxypropan-2-yl)amino)-1-methoxy-2-methyl-3-oxopropyl)pyrrolidin-1-yl)-3-methoxy-5-methyl-1-oxoheptan-4-yl)(methyl)amino)-3-methyl-1-oxobutan-2-yl)-2-methyl-2-azabicyclo[2.2.1]heptane-3-carboxamide], for which the IC50 in test [6] was determined as 0.019 nM; in test [3], 0.923 nM; in test [4] it was 0.068 nM; in test [5] it was 0.046 nM.
With `CC[C@H](C)[C@@H]([C@@H](CC(=O)N1CCC[C@H]1[C@H](OC)[C@@H](C)C(=O)N[C@H](C)[C@@H](O)c1ccccc1)OC)N(C)C(=O)[C@@H](NC(=O)[C@@H]1[C@H]2CC[C@H](C2)N1C)C(C)C` [Compound 74, (1R,3S,4S)-N-((S)-1-(((3R,4S,5S)-1-((S)-2-((1R,2R)-3-(((1S,2R)-1-Hydroxy-1-phenylpropan-2-yl)amino)-1-methoxy-2-methyl-3-oxopropyl)pyrrolidin-1-yl)-3-methoxy-5-methyl-1-oxoheptan-4-yl)(methyl)amino)-3-methyl-1-oxobutan-2-yl)-2-methyl-2-azabicyclo[2.2.1]heptane-3-carboxamide], the half-maximal inhibitory concentration (IC50) in test [6] stood at 0.27 nM; in test [1], 0.587 nM; in test [2], 0.962 nM; in test [3], 0.571 nM; in test [5] it was 0.351 nM.
Turning to `CC[C@H](C)[C@@H]([C@@H](CC(=O)N1CCC[C@H]1[C@H](OC)[C@@H](C)C(=O)N[C@H](Cc1ccccc1)c1ncccn1)OC)N(C)C(=O)[C@@H](NC(=O)[C@H]1N[C@@H]2CC[C@H]1C2)C(C)C` [Compound 61, (1R,3S,4S)-N-((S)-1-(((3R,4S,5S)-3-methoxy-1-((S)-2-((1R,2R)-1-methoxy-2-methyl-3-oxo-3-(((R)-2-phenyl-1-(pyrimidin-2-yl)ethyl)amino)propyl)pyrrolidin-1-yl)-5-methyl-1-oxoheptan-4-yl)(methyl)amino)-3-methyl-1-oxobutan-2-yl)-2-azabicyclo[2.2.1]heptane-3-carboxamide], the concentration for half-maximal inhibition (IC50) amounted to 66 nM in test [1]; 60.6 nM in test [2]; 5.43 nM in test [3]; 13.5 nM in test [4]; 6.1 nM in test [5].
